{
  "source": "patent US9012659B2",
  "about": "“3-(indolyl)- or 3-(azaindolyl)-4-arylmaleimide compounds and their use in tumor treatment” (Johannes Gutenberg—Universitat Mainz, priority 2009, dated 2015)",
  "key": {"human HT-29 cancer cells": {"tested_on": "human HT-29 cancer cells", "experiment": "Nicoletti apoptosis assay by cell cycle analysis (sub-G1 fraction)", "type": "cell-based", "details": "combination: compound plus Irinotecan 1.18 μM, agent-free control 3.4 ± 0.9%", "description": "Cancer cells were transferred to 12-well flat-bottomed plates. Cell suspensions (1 ml) containing 1.5×10^5 viable cells were plated into each well and incubated over night before exposure with various concentrations of agents. Cells were then incubated in 1 ml medium with various concentrations of single applied moguntinones, irinotecan alone, or with the combinations of moguntinones with irinotecan or topotecan at 37° C. with 5% CO2.\nAfter incubation cells were washed with PBS, trypsinizated, palleted and mixed with propidium-iodide-buffer (containing 0.1% sodium citrate, 0.1% triton X-100, […] propidium-iodide) and incubated for 1 hour at 4° C. Cell cycle sub-G1-fraction analysis was performed as described previously^23 using a FACS cytometer (BD FACS Calibur™, BD Biosciences, Heidelberg, Germany). Each experiment was done in triplicate.\nAll cells were maintained at 37° C. in an incubator under an atmosphere containing 5% CO2. After incubation the cells were washed with PBS, trypsinized, pelleted and mixed with PI buffer (containing 0.1% sodium citrate, 0.1% triton X-100, […] propidium iodide (PI)) and incubated for 1 hour at 4° C. Cell cycle sub-G1 fraction analysis was performed as described previously (Nicoletti, I. et al. (1991) J. Immunol. Methods 139, 271-279) using a flow cytometer (BD FACS Calibur™, BD Biosciences, Heidelberg, Germany). […]"}, "[1]": {"tested_on": "HT-29 human colon adenocarcinoma cells", "experiment": "Evaluation of antiproliferative effect (MTT assay)", "type": "cell-based", "details": "72 h, treatment for 3 days, untreated HT-29 cells: 100%, read-out: Decrease of HT-29 colon cancer cell viability (%)", "description": "Cell suspensions (200 μl) containing 10,000 viable cells were plated into each well and incubated over night before exposure with various concentrations of agents. Cells were then incubated with 100 μl of different concentrations of compounds for 3 days at 37° C. with 5% CO2. At the end of the time point (3 days), 10 μl/well of MTT stock solution (5 mg/ml) (Biomol, Germany) were added. […] Each experiment was done in triplicate. […]\nThe antitumor efficacy of the compounds of the invention was examined against HT-29 human colon adenocarcinoma cells. […] The compound of example 1 of WO 2006/061212 was used as comparative compound."}},
  "data": [
    {"compound": "COc1cc(C2=C(c3cn(CCN)c4ccccc34)C(=O)NC2=O)cc(OC)c1OC.Cl", "note": "[Example 1, 3-(1-[2-Ammonioethyl]-1H-indol-3-yl)-4-(3,4,5-trimethoxyphenyl)-maleinimide-chloride]", "values": [
      {"measurement": "Induction of apoptosis, combination compound plus irinotecan", "setting": "human HT-29 cancer cells", "value": "51.00 ± 0.56", "unit": "%"},
      {"measurement": "viability at 2.6 µM", "setting": "[1]", "value": "32.3 ± 1.07", "unit": "%"},
      {"measurement": "viability at 7.9 µM", "setting": "[1]", "value": "29.3 ± 2.09", "unit": "%"},
      {"measurement": "viability at 26 µM", "setting": "[1]", "value": "12.5 ± 0.39", "unit": "%"},
      {"measurement": "viability at 52 µM", "setting": "[1]", "value": "8.95 ± 0.65", "unit": "%"},
      {"measurement": "melting point", "value": 277.1, "unit": "°C"}
    ]},
    {"compound": "COc1cc(C2=C(c3cn(CCCN)c4ccccc34)C(=O)NC2=O)cc(OC)c1OC.Cl", "note": "[Example 2, 3-(1-[3-Ammoniopropyl]-1H-indol-3-yl)-4-(3,4,5-trimethoxyphenyl)-maleinimide-chloride]", "values": [
      {"measurement": "viability at 2.6 µM", "setting": "[1]", "value": "45.8 ± 3.25", "unit": "%"},
      {"measurement": "viability at 7.9 µM", "setting": "[1]", "value": "36.4 ± 1.77", "unit": "%"},
      {"measurement": "viability at 26 µM", "setting": "[1]", "value": "17.65 ± 0.13", "unit": "%"},
      {"measurement": "viability at 52 µM", "setting": "[1]", "value": "6.68 ± 0.29", "unit": "%"},
      {"measurement": "melting point", "value": "274 to 275", "unit": "°C"}
    ]},
    {"compound": "COc1cc(C2=C(c3cn(CCO)c4ccccc34)C(=O)NC2=O)cc(OC)c1OC", "note": "[Example 3, 3-(1-[2-Hydroxyethyl]-1H-indol-3-yl)-4-(3,4,5-trimethoxyphenyl)-maleinimide]", "values": [
      {"measurement": "viability at 2.6 µM", "setting": "[1]", "value": "68.8 ± 2.48", "unit": "%"},
      {"measurement": "viability at 7.9 µM", "setting": "[1]", "value": "70.2 ± 3.72", "unit": "%"},
      {"measurement": "viability at 26 µM", "setting": "[1]", "value": "45.7 ± 2.18", "unit": "%"},
      {"measurement": "viability at 52 µM", "setting": "[1]", "value": "28.7 ± 0.55", "unit": "%"},
      {"measurement": "melting point", "value": "195 to 196", "unit": "°C"}
    ]},
    {"compound": "COc1cc(C2=C(c3cn(CCCO)c4ccccc34)C(=O)NC2=O)cc(OC)c1OC", "note": "[Example 4, 3-(1-[3-Hydroxypropyl]-1H-indol-3-yl)-4-(3,4,5-trimethoxyphenyl)-maleinimide]", "values": [
      {"measurement": "viability at 2.6 µM", "setting": "[1]", "value": "37.9 ± 1.3", "unit": "%"},
      {"measurement": "viability at 7.9 µM", "setting": "[1]", "value": "34.7 ± 0.78", "unit": "%"},
      {"measurement": "viability at 26 µM", "setting": "[1]", "value": "27.7 ± 1.23", "unit": "%"},
      {"measurement": "viability at 52 µM", "setting": "[1]", "value": "25.4 ± 2.26", "unit": "%"},
      {"measurement": "melting point", "value": 160, "unit": "°C"}
    ]},
    {"compound": "COc1cc(C2=C(c3cn(CCN(C)C)c4ccccc34)C(=O)NC2=O)cc(OC)c1OC", "note": "[Example 5, 3-{1-[2-(Dimethylamino)ethyl]-1H-indol-3-yl}-4-(3,4,5-trimethoxyphenyl)-maleinimide]", "values": [
      {"measurement": "viability at 2.6 µM", "setting": "[1]", "value": "68.5 ± 8.69", "unit": "%"},
      {"measurement": "viability at 7.9 µM", "setting": "[1]", "value": "52.6 ± 0.53", "unit": "%"},
      {"measurement": "viability at 26 µM", "setting": "[1]", "value": "32.2 ± 0.9", "unit": "%"},
      {"measurement": "viability at 52 µM", "setting": "[1]", "value": "15 ± 0.9", "unit": "%"},
      {"measurement": "melting point", "value": "184 to 185", "unit": "°C"}
    ]},
    {"compound": "COc1cc(C2=C(c3cn(CCCN(C)C)c4ccccc34)C(=O)NC2=O)cc(OC)c1OC", "note": "[Example 6, 3-{1-[3-(Dimethylamino)propyl]-1H-indol-3-yl}-4-(3,4,5-trimethoxyphenyl)maleinimide]", "values": [
      {"measurement": "viability at 2.6 µM", "setting": "[1]", "value": "39.3 ± 2.6", "unit": "%"},
      {"measurement": "viability at 7.9 µM", "setting": "[1]", "value": "38.5 ± 2.43", "unit": "%"},
      {"measurement": "viability at 26 µM", "setting": "[1]", "value": "15.8 ± 1.35", "unit": "%"},
      {"measurement": "viability at 52 µM", "setting": "[1]", "value": "19.4 ± 1.32", "unit": "%"},
      {"measurement": "melting point", "value": "187 to 188", "unit": "°C"}
    ]},
    {"compound": "COc1cc(C2=C(c3cn(CCN4CCCCC4)c4ccccc34)C(=O)NC2=O)cc(OC)c1OC", "note": "[Example 7, 3-{1-[2-(Piperidin-1-yl)ethyl]-1H-indol-3-yl}-4-(3,4,5-trimethoxyphenyl)-maleinimide]", "values": [
      {"measurement": "viability at 2.6 µM", "setting": "[1]", "value": "86.5 ± 2.16", "unit": "%"},
      {"measurement": "viability at 7.9 µM", "setting": "[1]", "value": "56.9 ± 3.02", "unit": "%"},
      {"measurement": "viability at 26 µM", "setting": "[1]", "value": "20.1 ± 1.36", "unit": "%"},
      {"measurement": "viability at 52 µM", "setting": "[1]", "value": "24.3 ± 0.98", "unit": "%"},
      {"measurement": "melting point", "value": "179 to 180", "unit": "°C"}
    ]},
    {"compound": "COc1cc(C2=C(c3cn(CCN4CCOCC4)c4ccccc34)C(=O)NC2=O)cc(OC)c1OC", "note": "[Example 8, 3-{1-(2-Morpholinoethyl)-1H-indol-3-yl}-4-(3,4,5-trimethoxyphenyl)-maleinimide]", "values": [
      {"measurement": "viability at 2.6 µM", "setting": "[1]", "value": "81.1 ± 2.99", "unit": "%"},
      {"measurement": "viability at 7.9 µM", "setting": "[1]", "value": "84.1 ± 2.18", "unit": "%"},
      {"measurement": "viability at 26 µM", "setting": "[1]", "value": "53.39 ± 0.1", "unit": "%"},
      {"measurement": "viability at 52 µM", "setting": "[1]", "value": "39.3 ± 1.31", "unit": "%"},
      {"measurement": "melting point", "value": "238 to 239", "unit": "°C"}
    ]},
    {"compound": "COc1cc(C2=C(c3cn(CCCN4CCN(C)CC4)c4ccccc34)C(=O)NC2=O)cc(OC)c1OC", "note": "[Example 9, 3-{1-[3-(4-Methylhexahydro-1-pyrazindiylium)propyl]-1H-indol-3-yl}-4-(3,4,5-trimethoxyphenyl)-maleinimide dichloride]", "values": [
      {"measurement": "viability at 2.6 µM", "setting": "[1]", "value": "66.5 ± 3.1", "unit": "%"},
      {"measurement": "viability at 7.9 µM", "setting": "[1]", "value": "49.9 ± 1.32", "unit": "%"},
      {"measurement": "viability at 26 µM", "setting": "[1]", "value": "22.6 ± 1.16", "unit": "%"},
      {"measurement": "viability at 52 µM", "setting": "[1]", "value": "15.3 ± 1.21", "unit": "%"},
      {"measurement": "melting point", "value": "225 to 226", "unit": "°C"}
    ]},
    {"compound": "COc1cc(C2=C(c3c[nH]c4ccc(F)cc34)C(=O)NC2=O)cc(OC)c1OC", "note": "[Example 10, 3-(5-Fluoro-1H-indol-3-yl)-4-(3,4,5-trimethoxyphenyl)-maleinimide]", "values": [
      {"measurement": "melting point", "value": "232 to 233", "unit": "°C"}
    ]},
    {"compound": "COc1cc(C2=C(c3c[nH]c4ccc(Br)cc34)C(=O)NC2=O)cc(OC)c1OC", "note": "[Example 11, 3-(5-Bromo-1H-indol-3-yl)-4-(3,4,5-trimethoxyphenyl)-maleinimide]", "values": [
      {"measurement": "melting point", "value": "259 to 262", "unit": "°C"}
    ]},
    {"compound": "COc1cc(C2=C(c3c[nH]c4cccnc34)C(=O)NC2=O)cc(OC)c1OC", "note": "[Example 12, 3-(4-Azaindol-3-yl)-4-(3,4,5-trimethoxyphenyl)-1H-pyrrol-2,5-dione]", "values": [
      {"measurement": "melting point", "value": "274 to 275", "unit": "°C"}
    ]}
  ]
}
